In patent US20080125395A1, “COMPOSITIONS AND METHODS FOR THE TREATMENT OF SKIN” (priority 1999, published 2008):

System: rosacea
Assay: topical treatment of rosacea in human subjects (case reports)
Type: in vivo
Conditions: long-term use by subjects with facial rosacea
From the text: A second subject was a person who suffered from disfiguring rosacea on their face for 14 years. […] After failure of the cortisone treatment to provide adequate relief, the subject used an ascorbic acid, zinc sulfate and tyrosine formulation once a day. The ascorbic acid composition provided slight relief, but the subject's rosacea never cleared up adequately. The subject then used the same ascorbic acid formulation to which 20% (w/v) glucosamine had been added.
FIG. 4 provides an exemplary depiction of the cosmetic and therapeutic benefits of the present invention. A subject used an embodiment of the present invention containing glucosamine for one week. Before using the embodiment (panel A), the subject suffered from disfiguring rosacea blemishes on their face. […] In one week, the size of blemishes has decreased and the intensity of the rosacea has abated, although some scarring (resulting from years of severe inflammatory lesions that had not responded to previous treatments) remains.

In the case of `C[C@]12CCC(=O)C=C1CC[C@@H]1[C@@H]2[C@@H](O)C[C@@]2(C)[C@H]1CC[C@]2(O)C(=O)CO` [hydrocortisone], the “control of rosacea inflammation” value is reported as “partially control”.
